Results published in patent US12421242B2, “Substituted tetrahydropyrrolo-pyridinone compounds and their use in treating medical conditions” (Karuna Therapeutics, Inc., priority 2022, dated 2025).

Key:
hM4 receptors = biological target: T1, hM4 receptors (Homo sapiens, UniProt P08173); assay: Human M4 PAM pERK assay; type: cell-based; conditions: PAM mode
T1 construct: expressed in transfected cells; host or cells: CHO cells
T1 sequence (P08173 1-479): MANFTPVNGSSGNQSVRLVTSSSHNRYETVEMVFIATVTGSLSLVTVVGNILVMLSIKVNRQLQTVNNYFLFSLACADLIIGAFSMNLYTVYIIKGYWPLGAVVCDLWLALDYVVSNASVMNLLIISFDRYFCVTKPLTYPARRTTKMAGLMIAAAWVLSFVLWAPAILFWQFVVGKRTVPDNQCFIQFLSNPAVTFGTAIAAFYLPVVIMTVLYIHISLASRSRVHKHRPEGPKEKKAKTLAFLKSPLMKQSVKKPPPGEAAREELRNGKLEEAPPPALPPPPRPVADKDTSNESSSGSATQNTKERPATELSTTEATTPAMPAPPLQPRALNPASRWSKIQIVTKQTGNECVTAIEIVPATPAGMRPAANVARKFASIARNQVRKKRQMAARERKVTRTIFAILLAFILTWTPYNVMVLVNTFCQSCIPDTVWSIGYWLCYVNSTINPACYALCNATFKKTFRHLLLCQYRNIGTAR
Summary of the method: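 CHO cells expressing hM4 or rM4 were serum-starved 4 h, then given compound (ten-point curve, 10 μM top, duplicate) with an EC20 of acetylcholine (10 nM final) for 5 min at 37° C. Phospho-ERK in lysates was detected by TR-FRET.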

human M4 receptor = biological target: T2, human M4 receptor (Homo sapiens, UniProt P08173); assay: M4 GTPγS PAM assay; type: biochemical; conditions: CHO-K1 membranes expressing human M4, with EC20 acetylcholine (40 nM)
T2 construct: expressed in transfected cells
T2 sequence (P08173 1-479): T1 sequence (P08173 1-479)
Summary of the method: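 Membranes from CHO-K1 cells stably expressing human M4 preincubated 10-15 min with compound in HEPES/MgCl2/NaCl buffer with 0.1 µM GDP, then with EC20 acetylcholine (40 nM) for 10-15 min. [35S]GTPγS added for 1 h at room temperature; filter-bound radioactivity counted by scintillation.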

EC50 (hM4 receptors) [nM]	EC50 (human M4 receptor) [nM]	Compound
< 100	100 to 500	Cc1c2c(n(C)c(=O)c1Cl)CN(C(=O)c1cnn(C(F)(F)F)c1)C2 [Compound I-1, 3-chloro-1,4-dimethyl-6-(1-(Trifluoromethyl)-1H-pyrazole-4-carbonyl)-1,5,6,7-tetrahydro-2H-pyrrolo[3,4-b]pyridin-2-one]
< 100	< 100	Cc1c2c(n(C)c(=O)c1Cl)CN(C(=O)c1cnn(C(F)(F)F)c1)[C@@H]2C [Compound I-76, (R)-3-Chloro-1,4,5-trimethyl-6-(1-(trifluoromethyl)-1H-pyrazole-4-carbonyl)-1,5,6,7-tetrahydro-2H-pyrrolo[3,4-b]pyridin-2-one]
< 100	100 to 500	COc1c2c(n(C)c(=O)c1C)CN(C(=O)c1cnn(C(F)(F)F)c1)C2 [Compound I-87]
